Structures can show the parent of a compound that is named as a salt.

The target of this test is S. aureus GyrB ATPase (Staphylococcus aureus, UniProt P0A0K8). The test is described as follows: S. aureus GyrB ATPase inhibition (ammonium molybdate/malachite green phosphate detection). As to conditions: compound concentration of 1 μM. It is filed as biochemical. On the procedure: S. aureus GyrB ATPase Inhibition Activity: Compounds may be tested for inhibition of S. aureus GyrB ATPase activity using an ammonium molybdate/malachite green-based phosphate detection assay (Lanzetta, P. A., L. J. Alvarez, P. S. Reinach, and O. A. Candia, 1979, 100: 95-97). Assays can be performed in multiwell plates in 30 μl reactions containing: 50 mM Hepes buffer pH 7.5, 75 mM ammonium acetate, 8.0 mM magnesium chloride, 0.5 mM ethylenediaminetetraacetic acid, 5% glycerol, 1.0 mM 1,4-Dithio-DL-threitol, 200 nM bovine serum albumin, 1.0 μg/ml sheared salmon sperm DNA, 250 pM E. coli GyrA, 250 pM S. aureus GyrB, 250 μM ATP, and compound in dimethylsulfoxide. Reactions can be quenched with […] of ammonium molybdate/malachite green detection reagent containing 1.2 mM malachite green hydrochloride, 8.5 mM ammonium molybdate tetrahydrate, and 1 M hydrochloric acid. Plates can be read in an absorbance plate reader at 650 nm and percent inhibition values can be calculated using dimethylsulfoxide (2%)-containing reactions as 0% inhibition and EDTA-containing ([…]) reactions as 100% inhibition controls. An IC50 measurement of compound potency for each compound can be determined from reactions performed in the presence of 10 different compound concentrations.
S. aureus GyrB ATPase, sequence (P0AES4 whole entry): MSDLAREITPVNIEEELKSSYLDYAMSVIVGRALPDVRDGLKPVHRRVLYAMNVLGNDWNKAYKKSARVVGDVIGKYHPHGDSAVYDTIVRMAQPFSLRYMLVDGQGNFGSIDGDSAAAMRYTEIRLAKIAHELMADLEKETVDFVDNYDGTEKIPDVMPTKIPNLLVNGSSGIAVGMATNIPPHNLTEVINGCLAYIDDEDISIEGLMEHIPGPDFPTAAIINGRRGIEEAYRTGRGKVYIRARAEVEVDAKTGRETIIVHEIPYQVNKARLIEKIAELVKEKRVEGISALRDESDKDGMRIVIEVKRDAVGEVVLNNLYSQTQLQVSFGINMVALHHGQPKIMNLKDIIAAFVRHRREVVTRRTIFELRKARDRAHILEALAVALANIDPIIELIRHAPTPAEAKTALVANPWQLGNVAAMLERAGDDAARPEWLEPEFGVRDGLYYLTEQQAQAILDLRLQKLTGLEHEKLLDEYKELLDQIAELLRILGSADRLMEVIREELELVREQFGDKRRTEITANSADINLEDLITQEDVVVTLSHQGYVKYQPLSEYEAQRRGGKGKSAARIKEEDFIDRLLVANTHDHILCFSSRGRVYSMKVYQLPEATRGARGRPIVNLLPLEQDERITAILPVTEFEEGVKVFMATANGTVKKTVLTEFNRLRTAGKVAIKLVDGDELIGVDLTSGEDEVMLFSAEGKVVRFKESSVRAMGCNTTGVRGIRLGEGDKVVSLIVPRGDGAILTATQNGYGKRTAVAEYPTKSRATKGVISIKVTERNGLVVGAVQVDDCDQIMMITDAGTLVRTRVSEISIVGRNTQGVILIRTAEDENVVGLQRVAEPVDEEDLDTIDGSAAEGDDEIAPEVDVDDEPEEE
S. aureus GyrB ATPase, sequence (P0A0K8 whole entry): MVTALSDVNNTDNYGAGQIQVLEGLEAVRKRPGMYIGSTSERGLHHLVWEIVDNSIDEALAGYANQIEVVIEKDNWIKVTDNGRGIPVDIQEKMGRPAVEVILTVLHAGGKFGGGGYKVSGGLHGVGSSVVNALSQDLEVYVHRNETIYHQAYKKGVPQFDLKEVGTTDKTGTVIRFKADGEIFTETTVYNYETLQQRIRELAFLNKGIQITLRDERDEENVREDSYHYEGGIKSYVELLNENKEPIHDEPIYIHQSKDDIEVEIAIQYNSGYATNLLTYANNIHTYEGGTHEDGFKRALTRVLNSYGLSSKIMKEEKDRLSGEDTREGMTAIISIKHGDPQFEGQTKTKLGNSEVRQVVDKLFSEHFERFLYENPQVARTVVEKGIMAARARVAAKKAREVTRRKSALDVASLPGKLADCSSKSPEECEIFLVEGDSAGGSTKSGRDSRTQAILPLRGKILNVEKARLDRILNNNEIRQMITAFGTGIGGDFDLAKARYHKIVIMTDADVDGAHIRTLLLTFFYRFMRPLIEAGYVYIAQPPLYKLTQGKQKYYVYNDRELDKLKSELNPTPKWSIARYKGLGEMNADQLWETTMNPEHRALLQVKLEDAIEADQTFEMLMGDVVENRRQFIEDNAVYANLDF
Compounds of the invention were tested in an assay substantially similar to the assay described above for measuring the inhibition of S. aureus GyrB ATPase. Percent inhibition of S. aureus GyrB ATPase at a compound concentration of 1 μM (unless otherwise noted) is disclosed in the following table: […]
Usually inhibition stands for the change of the read-out against control, counted positive when it falls. `Cc1[nH]c(C(=O)N[C@@H]2CCN(c3nc(-c4ncccc4F)c(C(=O)O)s3)C[C@@H]2OCc2ccccc2)cc1Cl` [Example 149, 2-[(3S,4R)-3-(benzyloxy)-4-{[(4-chloro-5-methyl-1H-pyrrol-2-yl)carbonyl]amino}piperidin-1-yl]-4-(3-fluoropyridin-2-yl)-1,3-thiazole-5-carboxylic acid]: the inhibition at 1 µM was found to be 103%.

`COCCn1ccnc1-c1nc(N2CC[C@@H](NC(=O)c3cc(Cl)c(C)[nH]3)[C@@H](OCc3ccccc3)C2)sc1C(=O)O` [Example 148, 2-[(3S,4R)-3-(benzyloxy)-4-{[(4-chloro-5-methyl-1H-pyrrol-2-yl)carbonyl]amino}piperidin-1-yl]-4-[1-(2-methoxyethyl)-1H-imidazol-2-yl]-1,3-thiazole-5-carboxylic acid]: the inhibition at 1 µM turned out to be 99.9%. Consider `COC(=O)c1sc(N2CC[C@@H](NC(=O)c3[nH]c(C)c(Cl)c3C#N)[C@@H](OC)C2)nc1-c1ncnn1C` [Example 104, methyl 2-((3S,4R)-4-(4-chloro-3-cyano-5-methyl-1H-pyrrole-2-carboxamido)-3-methoxypiperidin-1-yl)-4-(1-methyl-1H-1,2,4-triazol-5-yl)thiazole-5-carboxylate], for which the inhibition at 1 µM worked out at 86.4%.

Take `COCCn1ccnc1-c1nc(N2CC[C@@H](NC(=O)c3[nH]c(C)c(C#N)c3Cl)[C@@H](OC)C2)sc1C(=O)OC` [Example 69]: the inhibition at 1 µM was determined as 100%.

Consider `CO[C@H]1CN(c2nc(-c3ccccn3)c(C(=O)O)s2)CC[C@H]1NC(=O)c1[nH]c(C)c(Cl)c1Cl` [Example 7, 2-((3S,4R)-4-{[(3,4-Dichloro-5-methyl-1H-pyrrol-2-yl)carbonyl]amino}-3-methoxypiperidin-1-yl)-4-pyridin-2-yl-1,3-thiazole-5-carboxylic acid], for which the inhibition at 1 µM worked out at 97.1%. The result for `CO[C@H]1CN(c2nc(-c3n(C)cc[n+]3C)c(C(=O)O)s2)CC[C@H]1NC(=O)c1[nH]c(C)c(Cl)c1Cl` [Example 22, 2-[5-Carboxy-2-((3S,4R)-4-{[(3,4-dichloro-5-methyl-1H-pyrrol-2-yl)carbonyl]amino}-3-methoxypiperidin-1-yl)-1,3-thiazol-4-yl]-1,3-dimethyl-1H-imidazol-3-ium trifluoroacetate] reads 101%.

Take `CCOC(=O)c1sc(N2CC[C@@H](NC(=O)c3[nH]c(C)c(Cl)c3Cl)[C@@H](OC)C2)nc1-c1nc(OC)cc(OC)n1` [Example 52]: the inhibition at 1 µM came out at 101%. Turning to `Cc1[nH]c(C(=O)N[C@@H]2CCN(c3nc(-c4ncc[nH]4)c(C(=O)O)s3)C[C@@H]2F)c(Cl)c1Cl` [Example 20, 2-((3S,4R)-4-{[(3,4-Dichloro-5-methyl-1H-pyrrol-2-yl)carbonyl]amino}-3-fluoropiperidin-1-yl)-4-(1H-imidazol-2-yl)-1,3-thiazole-5-carboxylic acid], the inhibition at 1 µM was 98.6%. On to `CO[C@H]1CN(c2nc(-c3cn(C)cn3)c(C(=O)O)s2)CC[C@H]1NC(=O)c1[nH]c(C)c(Cl)c1Cl` [Example 40, 2-((3S,4R)-4-{[(3,4-Dichloro-5-methyl-1H-pyrrol-2-yl)carbonyl]amino}-3-methoxypiperidin-1-yl)-4-(1-methyl-1H-imidazol-4-yl)-1,3-thiazole-5-carboxylic acid], for which the inhibition at 1 µM is 101%.

Take `Cc1[nH]c(C(=O)N[C@@H]2CCN(c3nc(-c4ncccc4F)c(C(=O)O)s3)C[C@@H]2F)c(Cl)c1Cl` [Example 119, 2-((3S,4R)-4-(3,4-dichloro-5-methyl-1H-pyrrole-2-carboxamido)-3-fluoropiperidin-1-yl)-4-(3-fluoropyridin-2-yl)thiazole-5-carboxylic acid]: the inhibition at 1 µM stood at 79.4%. In the case of `Cc1[nH]c(C(=O)N[C@@H]2CCN(c3nc(-c4cnccn4)c(C(=O)O)s3)C[C@@H]2OCc2ccccc2)c(Cl)c1Cl` [Example 145, 2-[(3S,4R)-3-(benzyloxy)-4-{[(3,4-dichloro-5-methyl-1H-pyrrol-2-yl)carbonyl]amino}piperidin-1-yl]-4-(pyrazin-2-yl)-1,3-thiazole-5-carboxylic acid], the inhibition at 1 µM stood at 113%. Take `Cc1[nH]c(C(=O)N[C@@H]2CCN(c3nc(-c4cnccn4)c(C(=O)O)s3)C[C@@H]2F)c(Cl)c1Cl` [Example 14]: the inhibition at 1 µM came out at 98.3%.

For `Cc1[nH]c(C(=O)N[C@@H]2CCN(c3nc(-c4ncccc4F)c(C(=O)O)s3)C[C@@H]2OCc2ccccc2)c(Cl)c1Cl` [Example 144, 2-[(3S,4R)-3-(benzyloxy)-4-{[(3,4-dichloro-5-methyl-1H-pyrrol-2-yl)carbonyl]amino}piperidin-1-yl]-4-(3-fluoropyridin-2-yl)-1,3-thiazole-5-carboxylic acid], the inhibition at 1 µM was 114%. In the case of `COc1ccnc(-c2nc(N3CC[C@@H](NC(=O)c4[nH]c(C)c(Cl)c4Cl)[C@@H](OC)C3)sc2C(=O)O)c1` [Example 112, 2-((3S,4R)-4-(3,4-dichloro-5-methyl-1H-pyrrole-2-carboxamido)-3-methoxypiperidin-1-yl)-4-(4-methoxypyridin-2-yl)thiazole-5-carboxylic acid], the inhibition at 1 µM turned out to be 81.1%. With `COC(=O)c1sc(N2CC[C@@H](NC(=O)c3[nH]c(C)c(Cl)c3Cl)[C@@H](OC)C2)nc1-c1ncc[nH]1` [Example 86, Methyl 2-((3S,4R)-4-{[(3,4-dichloro-5-methyl-1H-pyrrol-2-yl)carbonyl]amino}-3-methoxypiperidin-1-yl)-4-(1H-imidazol-2-yl)-1,3-thiazole-5-carboxylate] the figure was 99.9%; with `CO[C@H]1CN(c2nc(-c3cnc(C)cn3)c(C(=O)O)s2)CC[C@H]1NC(=O)c1[nH]c(C)c(Cl)c1C#N` [Example 124, 2-((3S,4R)-4-(4-chloro-3-cyano-5-methyl-1H-pyrrole-2-carboxamido)-3-methoxypiperidin-1-yl)-4-(5-methylpyrazin-2-yl)thiazole-5-carboxylic acid], 104%; with `CCOC(=O)c1sc(N2CC[C@@H](NC(=O)c3[nH]c(C)c(Cl)c3Cl)[C@@H](OC)C2)nc1-c1ccccn1` [Example 48], 100%. Turning to `CO[C@H]1CN(c2nc(-c3ncnn3C)c(C(=O)O)s2)CC[C@H]1NC(=O)c1[nH]c(C)c(Cl)c1C#N` [Example 121, 2-((3S,4R)-4-(4-chloro-3-cyano-5-methyl-1H-pyrrole-2-carboxamido)-3-methoxypiperidin-1-yl)-4-(1-methyl-1H-1,2,4-triazol-5-yl)thiazole-5-carboxylic acid], the inhibition at 1 µM is 103%. As for `CO[C@H]1CN(c2nc(-c3ncccn3)c(C(=O)O)s2)CC[C@H]1NC(=O)c1[nH]c(C)c(Cl)c1Cl` [Example 1, 2-((3S,4R)-4-{[(3,4-Dichloro-5-methyl-1H-pyrrol-2-yl)carbonyl]amino}-3-methoxypiperidin-1-yl)-4-pyrimidin-2-yl-1,3-thiazole-5-carboxylic acid], the inhibition at 1 µM came out at 99.2%. As to `CCOC(=O)c1sc(N2CC[C@@H](NC(=O)c3[nH]c(C)c(Cl)c3Cl)[C@@H](F)C2)nc1-c1cn(C)cn1` [Example 78], the inhibition at 1 µM is 101%. For the compound `COC(=O)c1sc(N2CC[C@@H](NC(=O)c3[nH]c(C)c(Cl)c3Cl)[C@@H](F)C2)nc1-c1nccn1C` [Example 79], the inhibition at 1 µM was 101%. The result for `COC(=O)c1sc(N2CC[C@@H](NC(=O)c3[nH]c(C)c(Cl)c3Cl)[C@@H](F)C2)nc1-c1cccc(OC)n1` [Example 100, methyl 2-((3S,4R)-4-(3,4-dichloro-5-methyl-1H-pyrrole-2-carboxamido)-3-fluoropiperidin-1-yl)-4-(6-methoxypyridin-2-yl)thiazole-5-carboxylate] reads 112%. Regarding `COC(=O)c1sc(N2CC[C@@H](NC(=O)c3[nH]c(C)c(Cl)c3Cl)[C@@H](F)C2)nc1-c1ncc[nH]1` [Example 87], the inhibition at 1 µM amounted to 71%. For `COc1cccc(-c2nc(N3CC[C@@H](NC(=O)c4[nH]c(C)c(Cl)c4Cl)[C@@H](F)C3)sc2C(=O)O)n1` [Example 117, 2-((3S,4R)-4-(3,4-dichloro-5-methyl-1H-pyrrole-2-carboxamido)-3-fluoropiperidin-1-yl)-4-(6-methoxypyridin-2-yl)thiazole-5-carboxylic acid], the inhibition at 1 µM is 108%. With `CO[C@H]1CN(c2nc(-c3ncnn3C)c(C(=O)O)s2)CC[C@H]1NC(=O)c1cc(C#N)c(C)[nH]1` [Example 31, 2-((3S,4R)-4-{[(4-Cyano-5-methyl-1H-pyrrol-2-yl)carbonyl]amino}-3-methoxypiperidin-1-yl)-4-(1-methyl-1H-1,2,4-triazol-5-yl)-1,3-thiazole-5-carboxylic acid] the figure was 99.3%; with `COCCn1ccnc1-c1nc(N2CC[C@@H](NC(=O)c3[nH]c(C)c(Cl)c3Cl)[C@@H](OC)C2)sc1C(=O)O` [Example 25, 2-((3S,4R)-4-{[(3,4-Dichloro-5-methyl-1H-pyrrol-2-yl)carbonyl]amino}-3-methoxypiperidin-1-yl)-4-[1-(2-methoxyethyl)-1H-imidazol-2-yl]-1,3-thiazole-5-carboxylic acid], 98.3%. Turning to `CCOC(=O)c1sc(N2CC[C@@H](NC(=O)c3[nH]c(C)c(Cl)c3Cl)[C@@H](OC)C2)nc1-c1nc2ccccc2s1` [Example 54], the inhibition at 1 µM came to 97.8%.
